# Patent US5284853A, “Angiotensin II receptor blocking 2,3,6 substituted quinazolinones” (American Cyanamid Company, priority 1993, dated 1994)
# Target: T1, Angiotensin II Receptor (Bos taurus, UniProt P25104)
# T1 construct: The brownish tissue forming the adrenal cortex is scraped off and finely minced with scissors before homogenization; tissue local slaughter house (Maxwell-Cohen); host or cells: beef adrenal cortex, microsomal membranes (100,000×g pellet)
# T1 sequence (P25104 1-359): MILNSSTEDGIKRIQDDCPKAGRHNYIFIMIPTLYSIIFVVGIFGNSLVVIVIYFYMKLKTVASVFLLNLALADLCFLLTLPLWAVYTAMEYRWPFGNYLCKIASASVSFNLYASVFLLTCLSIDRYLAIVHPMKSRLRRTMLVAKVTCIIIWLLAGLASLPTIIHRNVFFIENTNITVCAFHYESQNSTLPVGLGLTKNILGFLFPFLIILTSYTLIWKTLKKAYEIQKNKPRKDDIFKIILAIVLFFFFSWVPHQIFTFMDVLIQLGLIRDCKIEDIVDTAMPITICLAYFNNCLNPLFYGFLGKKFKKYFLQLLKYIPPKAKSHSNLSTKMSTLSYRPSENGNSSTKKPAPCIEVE
# Assay: Receptor binding assay: competition of [^125 I](Sar^1,Ile^8)AngII binding to beef adrenal cortex microsomal membranes
# Conditions: 60 min, room temperature, pH 7.4
smiles,measurement,value
CCCCc1nc2ccc(C3CC(c4ccc(C)o4)=NO3)cc2c(=O)n1Cc1ccc(-c2ccccc2-c2nnn[nH]2)cc1 (stereo not shown) [Example 19],IC50,170 nM
